This is an account of results in patent US20090240045A1, “Organic Compounds” (Novartis AG, priority 2006, published 2009).

This assay addresses adenosine A2A receptor (Homo sapiens, UniProt P29274). The assay is described as follows: Adenosine A2A receptor agonist assay (method of Murphree et al.). The assay is classed as binding. The conditions noted are these: method described by Murphree et al., Mol Pharmacol, Vol. 61, pp. 455-462 (2002). From the text: Compounds of formula (I) and their pharmaceutically acceptable salts are useful as pharmaceuticals. In particular, they activate the adenosine A2A receptor, i.e., they act as A2A receptor agonists.

Where a name gives a salt, the structure may show the parent alone.

Sequence of adenosine A2A receptor (P29274 whole entry): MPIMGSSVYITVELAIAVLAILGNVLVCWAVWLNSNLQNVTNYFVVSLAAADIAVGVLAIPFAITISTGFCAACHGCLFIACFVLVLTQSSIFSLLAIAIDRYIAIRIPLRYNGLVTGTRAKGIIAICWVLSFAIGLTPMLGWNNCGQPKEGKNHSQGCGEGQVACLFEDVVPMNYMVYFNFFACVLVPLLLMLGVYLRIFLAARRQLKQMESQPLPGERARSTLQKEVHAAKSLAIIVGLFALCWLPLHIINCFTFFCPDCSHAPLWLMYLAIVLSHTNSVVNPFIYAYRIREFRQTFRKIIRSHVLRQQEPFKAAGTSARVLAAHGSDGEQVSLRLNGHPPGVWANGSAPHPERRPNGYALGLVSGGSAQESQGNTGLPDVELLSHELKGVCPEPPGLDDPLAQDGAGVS

One may read the Ki as a dissociation constant, usually derived from enzyme kinetics or from competition with a known ligand. The low end stands for higher affinity, the high end for lower affinity. `O=C(N[C@@H]1CCNC1)N[C@@H]1CCN(c2nc(NCC(c3ccccc3)c3ccccc3)c3ncn([C@@H]4O[C@H](CO)[C@@H](O)[C@H]4O)c3n2)C1` [Example 11, 1-{(R)-1-[9-(2R,3R,4S,5R)-3,4-Dihydroxy-5-hydroxymethyl-tetrahydro-furan-2-yl)-6-(2,2-diphenyl-ethylamino)-9H-purin-2-yl]-pyrrolidin-3-yl}-3-(R)-pyrrolidin-3-yl-urea trifluoroacetate]: the affinity, expressed as Ki, was 12 nM.
The figure for `CCn1nnc([C@H]2O[C@@H](n3cnc4c(NCC(c5ccc(O)cc5)c5ccc(O)cc5)nc(N5CC[C@@H](NC(=O)c6ccc(N7CCOCC7)nc6)C5)nc43)[C@H](O)[C@@H]2O)n1` [Example 77, N-((R)-1-{6-[2,2-bis-(4-Hydroxy-phenyl)-ethylamino]-9-[(2R,3R,4S,5R)-5-(2-ethyl-2H-tetrazol-5-yl)-3,4-dihydroxy-tetrahydro-furan-2-yl]-9H-purin-2-yl}-pyrrolidin-3-yl)-6-morpholin-4-yl-nicotinamide trifluoroacetate] is 6 nM.
